The values that follow are results of earlier work, collected in patent US20200170998A1, “UMBILICAL CORD BLOOD SERUM AND UMBILICAL CORD BLOOD PLASMA PREPARATION IN COMBINATION WITH A NONSTEROIDAL ANTI-INFLAMMATORY DRUG AND FREEZE-DRYING THE COMPOSITION” (CELLULA LLC, priority 2018, published 2020).

The data set deals with corneal epithelial cells. The conditions noted are these: in-vitro; control a balanced salt solution.

Regarding `O=C(O)Cc1ccccc1Nc1c(Cl)cccc1Cl` [Diclofenac], the “toxicity on corneal epithelial cells” value is “significant cellular toxicity”.

For the molecule `CC(=O)[C@@]1(O)CC[C@H]2[C@@H]3C[C@H](C)C4=CC(=O)C=C[C@]4(C)[C@@]3(F)[C@@H](O)C[C@@]21C` [Flourometholone], the “toxicity on corneal epithelial cells” value is listed as “most severe toxicity”.

Turning to `Nc1c(CC(=O)O)cccc1C(=O)c1ccc(Br)cc1` [bromfenac], the “toxicity on corneal epithelial cells” value was “less cellular damage and showed no difference with the control”.

For `CC(C(=O)O)c1ccc2c(c1)Cc1cccnc1O2` (stereo not shown) [pranoprofen], the “toxicity on corneal epithelial cells” value was “less cellular damage and showed no difference with the control”.
